According to paper PMC8343220, “The selectivity of α‐adrenoceptor agonists for the human α1A, α1B, and α1D‐adrenoceptors” (Pharmacology Research & Perspectives, 2021):

Legend:
[1] = test system: parental CHO cell line without any transfected receptors; test: Forskolin‐stimulated cAMP accumulation, parent CHO cells without transfected receptors; type: cell-based, Chinese hamster; details: CHO cells without transfected receptors; in presence of forskolin
[2] = test system: parental CHO cell line without any transfected receptors; test: ERK1/2‐phosphorylation, parent CHO cells without transfected receptors; type: cell-based, Chinese hamster; details: for Emax at 100 µM: Cricetulus griseus, CHO, read-out: ERK1/2-phosphorylation % PDBu at 100μM
[3] = molecular target: T1, human α1D‐adrenoceptor (full length) (Homo sapiens, UniProt P25100); test: ^3H‐cAMP accumulation, CHO‐α1D cells; type: cell-based; details: cAMP accumulation without forskolin
T1 construct: human α1D‐adrenoceptor (full length) were used; expressed in transfected cells; host or cells: CHO-K1
T1 sequence (P25100 1-572): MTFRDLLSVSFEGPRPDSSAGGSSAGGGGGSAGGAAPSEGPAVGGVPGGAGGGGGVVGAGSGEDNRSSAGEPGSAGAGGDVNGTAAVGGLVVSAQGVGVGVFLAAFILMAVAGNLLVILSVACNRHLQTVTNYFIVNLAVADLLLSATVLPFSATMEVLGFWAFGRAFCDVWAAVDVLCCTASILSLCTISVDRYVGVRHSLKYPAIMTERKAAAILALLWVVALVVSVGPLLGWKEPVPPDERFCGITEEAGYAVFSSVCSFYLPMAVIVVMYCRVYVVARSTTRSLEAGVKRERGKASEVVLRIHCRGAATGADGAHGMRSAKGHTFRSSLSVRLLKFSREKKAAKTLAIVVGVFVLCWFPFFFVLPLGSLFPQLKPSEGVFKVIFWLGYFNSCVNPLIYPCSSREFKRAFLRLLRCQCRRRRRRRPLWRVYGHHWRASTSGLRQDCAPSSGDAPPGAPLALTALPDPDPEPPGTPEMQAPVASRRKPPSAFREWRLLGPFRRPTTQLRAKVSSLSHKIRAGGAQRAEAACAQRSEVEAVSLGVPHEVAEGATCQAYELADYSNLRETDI

human α1A‐adrenoceptor [4] = molecular target: T2, human α1A‐adrenoceptor (Homo sapiens, UniProt P35348); test: ^3H‐cAMP accumulation, CHO‐α1A cells; type: cell-based; details: CHO‐α1A cells; for EC50: 5 h, read-out: cAMP accumulation Log EC50 (converted); for cAMP accumulation % forskolin: % of 10 µM forskolin response
T2 construct: expressed in transfected cells; host or cells: CHO-K1
T2 sequence (P35348 1-466): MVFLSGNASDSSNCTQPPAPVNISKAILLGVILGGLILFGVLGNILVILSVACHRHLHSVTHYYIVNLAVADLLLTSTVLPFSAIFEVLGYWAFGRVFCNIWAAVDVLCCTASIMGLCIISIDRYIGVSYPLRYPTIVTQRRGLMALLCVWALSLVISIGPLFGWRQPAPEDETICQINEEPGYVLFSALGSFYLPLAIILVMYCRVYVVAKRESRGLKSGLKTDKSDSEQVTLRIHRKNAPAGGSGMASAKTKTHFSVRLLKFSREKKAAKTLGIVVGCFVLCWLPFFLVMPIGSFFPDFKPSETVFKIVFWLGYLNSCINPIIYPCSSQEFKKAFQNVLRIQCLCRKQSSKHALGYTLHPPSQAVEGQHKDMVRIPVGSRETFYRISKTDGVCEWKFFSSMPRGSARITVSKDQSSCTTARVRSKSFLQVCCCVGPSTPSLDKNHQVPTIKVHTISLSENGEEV

[5] = molecular target: T1, human α1D‐adrenoceptor (full length); test: Intracellular free calcium mobilization, CHO‐α1D cells; type: cell-based; details: CHO‐α1D cells; for Log efficacy ratio KD /EC50: intrinsic efficacy ratio, binding KD / calcium EC50; for EC50: log values given negative, read-out: Intracellular calcium release Log EC50 (converted); for Intracellular calcium release % ionomycin: maximal response as % of 10 µM ionomycin
human α1A‐adrenoceptor [6] = molecular target: T2, human α1A‐adrenoceptor; test: ^3H‐prazosin whole‐cell radioligand binding, CHO‐α1A cells; details: for Kd: CHO‐α1A cells, given as log KD (negative), mean ± SEM; for Affinity selectivity ratio α1A vs α1B: higher affinity for α1A than α1B; for Affinity selectivity ratio α1A vs α1D: higher affinity for α1A than α1D
[7] = molecular target: T1, human α1D‐adrenoceptor (full length); test: ^3H‐prazosin whole‐cell radioligand binding, CHO‐α1D cells; details: for Kd: CHO‐α1D cells; for Affinity selectivity ratio α1B vs α1D: higher affinity for α1D than α1B
human α1B‐adrenoceptor [8] = molecular target: T3, human α1B‐adrenoceptor (Homo sapiens, UniProt P35368); test: ERK1/2‐phosphorylation (Surefire Alphascreen), CHO‐α1B cells; type: cell-based; details: for EC50 / ERK1/2‐phosphorylation % PDBu: for bi‐phasic responses the initial stimulatory part; for EC50: read-out: ERK1/2‐phosphorylation Log EC50 (converted); for ERK1/2‐phosphorylation % PDBu: maximal response as % PDBu response
T3 construct: expressed in transfected cells; host or cells: CHO-K1
T3 sequence (P35368 1-520): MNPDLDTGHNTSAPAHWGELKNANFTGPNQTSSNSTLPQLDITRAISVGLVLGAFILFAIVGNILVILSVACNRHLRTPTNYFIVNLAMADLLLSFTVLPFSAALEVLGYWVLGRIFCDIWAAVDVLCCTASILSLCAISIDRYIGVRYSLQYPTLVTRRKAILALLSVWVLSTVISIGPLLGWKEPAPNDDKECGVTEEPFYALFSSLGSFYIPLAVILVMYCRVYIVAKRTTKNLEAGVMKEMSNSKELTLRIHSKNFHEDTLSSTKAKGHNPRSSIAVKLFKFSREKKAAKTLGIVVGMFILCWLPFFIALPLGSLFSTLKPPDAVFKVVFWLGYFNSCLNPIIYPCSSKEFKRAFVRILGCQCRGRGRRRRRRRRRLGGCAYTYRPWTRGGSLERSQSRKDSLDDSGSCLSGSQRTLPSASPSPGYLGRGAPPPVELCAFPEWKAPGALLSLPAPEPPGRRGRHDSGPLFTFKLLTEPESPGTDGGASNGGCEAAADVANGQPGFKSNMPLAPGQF

human α1A‐adrenoceptor [9] = molecular target: T2, human α1A‐adrenoceptor; test: ^3H‐cAMP accumulation in the presence of 10 μM forskolin, CHO‐α1A cells; type: cell-based; details: CHO‐α1A cells; for EC50: 10 μM forskolin, read-out: cAMP accumulation (in presence of forskolin) Log EC50 (converted); for cAMP accumulation (in presence of forskolin) Fold increase: fold increase of the forskolin response
human α1B‐adrenoceptor [10] = molecular target: T3, human α1B‐adrenoceptor; test: ^3H‐prazosin whole‐cell radioligand binding, CHO‐α1B cells; details: for Affinity selectivity ratio α1B vs α1D: left sub‐column: higher affinity for α1B than α1D
human α1A‐adrenoceptor [11] = molecular target: T2, human α1A‐adrenoceptor; test: Intracellular free calcium mobilization, CHO‐α1A cells; type: cell-based; details: CHO‐α1A cells; for Log efficacy ratio KD /EC50: binding KD and calcium EC50; for EC50: given as log EC50 (negative), read-out: Intracellular calcium release Log EC50 (converted); for Intracellular calcium release % ionomycin: maximal response as % of 10 µM ionomycin
human α1B‐adrenoceptor [12] = molecular target: T3, human α1B‐adrenoceptor; test: Intracellular free calcium mobilization, CHO‐α1B cells; type: cell-based; details: for EC50: given as log EC50 (negative numbers), read-out: Intracellular calcium release Log EC50 (converted); for Log efficacy ratio KD /EC50: intrinsic efficacy ratio, KD from binding / EC50 calcium; for Intracellular calcium release % ionomycin: maximal response as % of 10 µM ionomycin response
[13] = molecular target: T1, human α1D‐adrenoceptor (full length); test: ^3H‐cAMP accumulation in the presence of 10 μM forskolin, CHO‐α1D cells; type: cell-based; details: CHO‐α1D cells; for cAMP (in presence of forskolin) Fold increase: fold increase of the forskolin response
[14] = Log KD α1A, ^3H‐prazosin whole cell binding
[15] = 3H‐prazosin binding Log KD, whole‐cell binding (from Table 1), log values given negative
[16] = Log KD α1D, ^3H‐prazosin whole cell binding, given as log KD (negative), mean ± SEM, 'early plateau' = specific binding not fully inhibited
[17] = in presence of forskolin, log values given negative
[18] = given as log KD (negative), mean ± SEM, 'early plateau' = specific binding not fully inhibited
[19] = Log KD α1B, ^3H‐prazosin whole cell binding, CHO‐α1B cells, given as log KD (negative), mean ± SEM
[20] = Log KD, ^3H‐prazosin binding, CHO‐α1B cells, whole‐cell binding (from Table 1), given as log KD (negative numbers)

Compound	cAMP accumulation (in presence of forskolin) Log EC50 [1]	cAMP Log EC50 [3]	EC50 (human α1A‐adrenoceptor [4]) [µM]	cAMP accumulation % forskolin (human α1A‐adrenoceptor [4]) [%]	Log efficacy ratio KD /EC50 [5]	EC50 [5] [µM]	Intracellular calcium release % ionomycin [5] [%]	Affinity selectivity ratio α1A vs α1B (human α1A‐adrenoceptor [6]) [fold]	Affinity selectivity ratio α1A vs α1D (human α1A‐adrenoceptor [6]) [fold]	Kd [7, 15] [µM]	EC50 (human α1B‐adrenoceptor [8]; CHO‐α1B cells) [µM]	ERK1/2‐phosphorylation % PDBu (human α1B‐adrenoceptor [8]; CHO‐α1B cells) [%]	EC50 (human α1A‐adrenoceptor [9]) [µM]	cAMP accumulation (in presence of forskolin) Fold increase (human α1A‐adrenoceptor [9]) [fold]	Log efficacy ratio KD /EC50 (human α1A‐adrenoceptor [11])	EC50 (human α1A‐adrenoceptor [11]) [µM]	Intracellular calcium release % ionomycin (human α1A‐adrenoceptor [11]) [%]	EC50 (human α1B‐adrenoceptor [12]; CHO‐α1B cells) [µM]	Log efficacy ratio KD /EC50 (human α1B‐adrenoceptor [12]; CHO‐α1B cells)	cAMP (in presence of forskolin) Fold increase [13]	further results
COc1ccc(OC)c(C(O)C(C)N)c1 (stereo not shown) [Methoxamine]	No response	No response	4.9	120.0 ± 3.7	1.56	4.17	22.6 ± 4.7	>42.7	6.5	151	2.82	83.8 ± 5.7	0.398	2.19 ± 0.09	3.43	0.00871	55.9 ± 2.3	0.229	>3.64	1.21 ± 0.04	ERK1/2-phosphorylation % PDBu ([2]; CHO cells without transfected receptors, maximal response as % of PDBu (10μM) response, mean ± s.e.m.): No response; ERK1/2-phosphorylation Log EC50 ([2]; CHO cells without transfected receptors, mean ± s.e.m.): No response; Kd (human α1A‐adrenoceptor [6]; [14]): 23.4 µM; Kd [7, 16]: 151 µM; Affinity selectivity ratio α1B vs α1D [7]: >6.6 fold; IC50 (human α1B‐adrenoceptor [10]; CHO‐α1B cells, printed as IC50> log value): > 1000 µM; Intracellular calcium release % ionomycin (human α1B‐adrenoceptor [12]; CHO‐α1B cells): 59.1 ± 3.2%; EC50 [13, 17]: 10.5 µM
N=C(N)NC(=O)Cc1c(Cl)cccc1Cl [Guanfacine]	No response	No response	2.88	41.1 ± 2.3	0.53	3.47	28.6 ± 2.0	28.8	2.5		0.195	97.4 ± 2.7	0.155	2.22 ± 0.05	1.95	0.0525	56.8 ± 2.2	0.0269	3.70	1.20 ± 0.7	Emax at 100 µM [2]: 2.5 ± 1.7%; Kd (human α1A‐adrenoceptor [6]): 4.68 µM; Kd [7, 18]: 11.7 µM; Affinity selectivity ratio α1B vs α1D [7]: 11.5 fold; Kd (human α1B‐adrenoceptor [10]; CHO‐α1B cells, given as log KD (negative), mean ± SEM): 135 µM; Intracellular calcium release % ionomycin (human α1B‐adrenoceptor [12]; CHO‐α1B cells): 59.0 ± 2.4%; EC50 [13, 17]: 0.229 µM
CC(CCc1ccc(O)cc1)NCCc1ccc(O)c(O)c1 (stereo not shown) [Dobutamine]	No response	No response	0.871	11.9 ± 1.6	2.26	0.024	10.6 ± 1.8	7.9	9.5	4.37			0.661	1.98 ± 0.14	2.04	0.00417	31.3 ± 3.6			1.16 ± 0.06	ERK1/2-phosphorylation % PDBu at 10μM ([2]; CHO cells without transfected receptors, response at 10μM only, EC50 not obtainable, % of PDBu (10μM)): 16.4 ± 5.9%; Kd (human α1A‐adrenoceptor [6]): 0.457 µM; Kd [7, 18]: 4.37 µM; ERK1/2‐phosphorylation response in CHO‐α1B cells (human α1B‐adrenoceptor [8]): did not stimulate any measurable; ERK1/2‐phosphorylation % PDBu at 100 µM (human α1B‐adrenoceptor [8]; CHO‐α1B cells, response at 100 µM ligand (no EC50 given)): 56.3 ± 11.3%; Kd (human α1B‐adrenoceptor [10]; [19]): 3.63 µM; Kd (human α1B‐adrenoceptor [10]; [20]): 3.63 µM; Affinity selectivity ratio α1B vs α1D (human α1B‐adrenoceptor [10]): 1.2 fold; Agonist (calcium) response in CHO‐α1B cells (human α1B‐adrenoceptor [12]): did not stimulate any measurable; Intracellular calcium release % Ionomycin at 100 µM (human α1B‐adrenoceptor [12]; CHO‐α1B cells, response at 100 µM ligand (no EC50 given), % of ionomycin response): 3.0 ± 1.1%; EC50 [13, 17]: 0.309 µM
c1ccc2c(CC3=NCCN3)cccc2c1 [Naphazoline]	No response	No response	0.269	57.9 ± 5.7	1.24	0.117	11.8 ± 2.2	6.3	7.1	2.04	0.151	71.1 ± 7.2	0.0417	2.18 ± 0.05	2.39	0.00117	50.9 ± 2.6	0.00933	2.29	No response	Emax at 100 µM [2]: 9.2 ± 3.3%; Kd (human α1A‐adrenoceptor [6]; [14]): 0.288 µM; Kd [7, 16]: 2.04 µM; Kd (human α1B‐adrenoceptor [10]; [19]): 1.82 µM; Kd (human α1B‐adrenoceptor [10]; [20]): 1.82 µM; Affinity selectivity ratio α1B vs α1D (human α1B‐adrenoceptor [10]): 1.1 fold; Intracellular calcium release % ionomycin (human α1B‐adrenoceptor [12]; CHO‐α1B cells): 38.9 ± 2.9%; cAMP (in presence of forskolin) Log EC50 [13, 17]: No response
